# From patent publication US20220119868A1, “PROFILING RNA-SMALL MOLECULE BINDING SITES WITH OLIGONUCLEOTIDES” (priority 2018, published 2022)
# Legend:
# [1] = molecular target: RNA motif 5′AAC3′/3′U_G5′ (from RNA library C); test: In solution, fluorescence-based binding affinity assay
# Description: (§1) Affinity of Selected RNA Motif-Small Molecule Interactions. The affinity of exemplar compounds that have inherent fluorescence was measured. […] . Binding affinities were confirmed using a label-free method, biolayer interferometry.
# (§2) where n1 is the size of Population 1 (number of sequencing reads for a given RNA from RNA-seq analysis of the selected library), n2 is the size of Population 2 (number of sequencing reads for the same RNA from RNA-seq analysis of the starting library), p1 is the observed proportion of Population 1 (the number of reads for a given RNA from selected library/total number of reads), and p2 is the observed proportion for Population 2 (the number of reads for the same RNA in the starting library/total number of reads). Generation of Logos and DiffLogos: Zobs corresponding to the highest (enriched) 0.5% and lowest (discriminated against) 0.5% scores were analyzed to generate consensus sequences, or Logos. The resulting list of sequences were converted to position weight matrix (PWM) lists for each compound. “Enriched” and “discriminated” sequences were kept separate using JMP®, Version <13.2.1>. SAS Institute Inc., Cary, N.C., 1989-2007. The R package Difflogo,^16 which is part of Bioconductor, was utilized to create the sequence logos from PWM lists for each compound and visually compare the differences between them. Binding Affinity Measurements. Dissociation constants were determined using an in solution, fluorescence-based assay. […] Serial dilutions (1:2) of the small molecule were then completed in 1× Assay Buffer supplemented with 1 mM MgCl2. The solutions were incubated for 30 min at room temperature, transferred to a 96-well plate, and fluorescence intensity measured on a BioTek-FLx800 plate reader. The change in fluorescence intensity as a function of small molecule concentration was fit to a one site binding model per equation 3: […]
# (§3) Effect of compounds on HCV replication. […] Cytotoxicity assays. […] Oligonucleotide profiling of target engagement in vitro. […] Primers can be found in Table 4. […] Inhibition of kinases. […] . Figure S7C).
# [2] = molecular target: RNA motif 5′UGU3′/3′G_A5′ (from RNA library C); test: as above
# Description: as §1, §2, §3
# [3] = molecular target: RNA motif 5′UCCAU3′/3′AUCA (non-binder); test: as above
# Description: as §1, §2, §3
# [4] = tested on: WT SLI RNA (HCV SL I model); test: Oligonucleotide profiling of target engagement in vitro (RNase H cleavage); format: biochemical, Hepatitis C virus; conditions: antisense oligonucleotide and RNase H
# Text: Compound 8 binds the desired site in HCV RNA in vitro and in cells. To validate that the lead compounds bind to the desired site in the HCV RNA genome, an approach to profile binding site by using an antisense oligonucleotide was developed (FIG. 8A). Antisense oligonucleotides bind to complementary RNAs and recruit RNase H, which cleaves the RNA strand. Upon small molecule binding, the RNA's structure is stabilized, making it more difficult for the oligonucleotide to invade the structure. Thus, small molecule binding sites can be read out by inhibition of oligonucleotide cleavage. For in vitro studies, a small segment of the target site was transcribed that folds into the desired structure.
# Application of an antisense agent (Table 4) and RNase H cleaves the RNA at the desired site. […] Additional control experiments were completed in which the RNA was mutated to remove 8's binding site and the corresponding complementary oligonucleotide to induce RNase H cleavage.
# as §3
# CHK1 = CHK1 (Homo sapiens, UniProt O14757); test: In vitro inhibition of a panel of kinases; format: biochemical; conditions: 20 μM
# Text: as §3
# Sequence of CHK1 (O14757 whole entry): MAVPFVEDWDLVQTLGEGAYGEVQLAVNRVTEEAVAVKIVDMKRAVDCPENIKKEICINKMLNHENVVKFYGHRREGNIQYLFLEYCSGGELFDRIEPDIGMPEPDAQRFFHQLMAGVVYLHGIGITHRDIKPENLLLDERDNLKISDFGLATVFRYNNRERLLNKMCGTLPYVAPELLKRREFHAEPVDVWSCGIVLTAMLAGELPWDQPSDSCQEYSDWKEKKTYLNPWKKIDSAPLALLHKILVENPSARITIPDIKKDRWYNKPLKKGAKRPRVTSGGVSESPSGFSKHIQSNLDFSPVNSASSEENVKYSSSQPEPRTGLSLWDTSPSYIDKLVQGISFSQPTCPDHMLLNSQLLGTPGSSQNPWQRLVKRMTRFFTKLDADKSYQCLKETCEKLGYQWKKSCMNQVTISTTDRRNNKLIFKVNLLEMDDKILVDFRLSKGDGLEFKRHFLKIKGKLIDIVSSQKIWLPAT
SMILES,Kd [1] [nM],Kd [2] [nM],Kd [3] [nM],inhibition of antisense/RNase H-mediated cleavage of SL I in vitro [4],inhibition of CHK1 in vitro (CHK1)
O=C(Nc1cccc(NC(=O)Nc2cc(C(=O)Nc3ccc(C4=NCCN4)cc3)ccc2C(=O)Nc2ccc(C3=NCCN3)cc2)c1)Nc1cc(C(=O)Nc2ccc(C3=NCCN3)cc2)ccc1C(=O)Nc1ccc(C2=NCCN2)cc1 [Compound 7],420 ± 41,630 ± 36,7200 ± 418,,
O=C(Nc1ccc(C2=NCCN2)cc1)c1cc(C(=O)Nc2ccc(C3=NCCN3)cc2)cc(C(=O)Nc2ccc(C3=NCCN3)cc2)c1 [Compound 8],,,,limited the ability of the antisense to mediate cleavage of the target,inhibited
